Reference: US5242945A, “Tetronic and thiotetronic acid derivatives as phospholipase A2 inhibitors” (American Home Products Corporation, priority 1991, dated 1993)
Where two headings read alike, the source gives them in different places.

Columns and labels:
[1] = system: platelet-activating factor (PAF) biosynthesis in human polymorphonuclear neutrophils (PMN); test: platelet-activating factor biosynthesis in human polymorphonuclear neutrophils (in vitro phospholipase A2 assay); type: cell-based; details: Polymorphonuclear neutrophil, human PMN
Protocol: (§1) The compounds of the invention are tested in an in vitro phospholipase A2 assay to determine the ability of the compounds to inhibit the biosynthesis of platelet-activating factor and LTB4 in purified human neutrophils.
(§2) A leukocyte enriched blood sample obtained from a healthy donor is procured by leukophoresis using a Haemonetics model 30+ blood processor (Biological Specialties, Inc., Lansdale, Penn.). The top "platelet-rich" layer is removed after a low speed spin (35 xg, 15 min, 25° C.) of the sample. The remaining cell suspension is centrifuged (400 xg, 10 min, 25° C.) to sediment the remaining cells. The supernatant is discarded and the cell pellet resuspended in 120 ml HBSS (without Ca^++ /Mg^++). The cell suspension is subjected to ficoll-hypaque sedimentation (Histopaque 1077, 400 xg, 30 min, 25° C.). Contaminating erythrocytes are lysed by hypotonic shock (1 min). The cells are then washed once with 40 ml of HBSS and resuspended with HBSS (without Ca^++ /Mg^++) to a concentration of 2.5×10^7 cells/ml for further use. Greater than 95% purity is obtained, as assessed by microscopic examination.
(§3) One ml of human PMN (2.5×10^7 cells/ml) is incubated with vehicle or drugs (10 μl) for 10 minutes at 30° C. After preincubation, an equal volume of HBSS (1 ml) containing 2.4 mM CaCl2, 6 μM calcium ionophore A23187 and 50 μCi [^3 H]-acetate is then incubated at 30° C. for 15 minutes. An aliquot (100 μl) of the reaction mixture is taken out and mixed with 900 μl of 15% ethanol. LTB4 is extracted by using solid phase extraction on reverse phase C18 columns to remove excess [^3 H]-acetate and PAD. The C18 column is prewashed once with 2 ml of ethanol and water. The sample aliquot is acidified with 0.1N HCl to pH 3 before applying to the column. The column is then washed with 2 ml of water followed by 2 ml of 15% ethanol and 2 ml of petroleum ether to remove excess labeled acetate. The sample is eluted with 2 ml of ethyl acetate. The collected samples are dried with nitrogen and resuspended in 0.5 ml RIA buffer. The quantity of LTB4 in the sample is obtained from RIA determination. For PAF determination, the reaction is terminated by addition of 5 ml chloroform:methanol:acetic acid (2:1:0.04, v/v/v). [^3 H]-PAF is obtained by Bligh and Dyer extraction. The chloroform phase is removed and dried under nitrogen. The residue is redissolved in 75 μl of chloroform:methanol (80:20, v/v). [^3 H]-PAF is resolved from other phospholipids by TLC on RPC18 plates with a solvent system of chloroform:methanol:water (2:3:1, v/v/v) and is quantitated using a Berthold automated TLC linear analyzer.
(§4) Data presented are the mean +/- s.d. of the values relative to control A23187 stimulated cells for each experiment assayed in triplicate. Percent inhibition when used is calculated as:
(§5) % Inhibition=100-[(x.div.Control)×100].
(§6) Dose response analysis is performed by non-linear regression analysis for curve fitting and IC50 determination.

[2] = system: LTB4 biosynthesis in purified human neutrophils; test: LTB4 biosynthesis in human polymorphonuclear neutrophils (in vitro phospholipase A2 assay); type: cell-based; details: Neutrophil, human PMN
Protocol: as §1, §2, §3, §4, §5, §6

[3] = system: cyclooxygenase (PGE2); test: resident murine peritoneal macrophage assay, PGE2; type: cell-based, mouse (Swiss Webster); details: Mus musculus, Peritoneal macrophage; for IC50: read-out: PGE2 zymosan IC50
Protocol: The ability of the compounds of the invention to act as inhibitors of the enzymes 5-lipoxygenase and cyclooxygenase is measured in the resident murine peritoneal macrophage assay.
Resident peritoneal macrophages are collected from female Swiss Webster mice (49 days old, 20-25 gms, Buckshire) by lavaging with 7-8 ml Hanks Balanced Salt Solution (HBSS) without Ca^++ and Mg^++ (GIBCO). The lavage fluid from several mice is pooled and centrifuged at 4° C. for 10 minutes at 400 xg. The cell pellet is resuspended in Medium 199 (GIBCO) with HEPES buffer containing 100 μg/ml gentamicin. Two ml of the cell suspension (4×10^6 cells) are then plated on 35 mm culture dishes (Nunc).
A macrophage monolayer is established after a 1-1.5 hour incubation of the cells at 37° C. in an atmosphere of […] and 5% CO2. The monolayers are washed 2× with 2 ml HBDSS, containing Ca^++ and Mg^++ after which 2 ml Medium 199 supplemented with 10% freshly thawed heat-inactivated fetal bovine serum and 100 μg/ml gentamicin is added for an overnight incubation.
Residual serum and cellular debris are removed from the monolayers by washing 3× with 2 ml HBSS containing Ca^++ and Mg^++. Macrophages are preincubated for 5 minutes with 1 ml serum-free M199 containing 10 μl dimethyl sulfoxide (DMSO) vehicle or test compound prior to cell activation with zymosan ([…]) or arachidonic acid (AA) (2 μM). After 2 hours, the supernatants are removed and either assayed for LTC4 and PGE2 by radioimmunoassay (RIA) directly or stored at -20° C. In all cases, results are expressed as ng metabolite/4×10^6 cells.
Raw data (dpm) may be stored directly onto an "Autostart" tape using the HP85 in room C-096. The raw data are converted to ng metabolite/4-10^6cells using the standard curve by a "RIANAL" program (HP85) or a "NONLIN" program (HP9816). Results are then expressed as percent inhibition of zymosan induced, leukotriene or prostaglandin synthesis (control) using the equation: [formula]

[4] = system: TPA-induced ear edema; test: 12-o-tetradecanoylphorbol acetate (TPA)-induced murine ear edema assay; type: in vivo, mouse (Swiss Webster); details: TPA; for ED50: Mus musculus, sc, 4 h, read-out: Subcutaneous ED50; for Subcutaneous % Inhibition at 50 m/kg / ED50: subcutaneous
Protocol: The ability of the compounds of the invention to inhibit inflammatory responses is examined in the in vivo arachidonic acid (AA)/12-o-tetradecanoylphorbol acetate (TPA)-induced murine ear edema assay.
Swiss Webster female mice (Buckshire), approximately 8 weeks old are placed into plastic boxes in groups of six. Eight groups of mice receive AA topically on the right ear, and another 8 groups receive TPA topically on the right ear. AA and TPA are dissolved in acetone at concentrations of 100 mg/ml and 100 μg/ml respectively. The phlogistics are applied to the right ear by the means of an automatic pipet. Volumes of 10 μl are applied to the inner and outer surfaces of the ear. Each mouse receives either 2 mg/ear AA or 2 μg/ear TPA. The left ear (control) receives acetone delivered in the same manner. Topical and subcutaneous dosing regimens are as follows 1) drugs are given 30 minutes prior to AA treatment and 2) drugs are given 30 minutes after treatment with TPA.
Measurements are taken with Oditest calipers, 0-10 mm with 0.01 graduations. The right and left ears are measured after 1 hr AA-induced inflammation and 4 hours after TPA-induced inflammation.
The difference between right and left ear thickness is calculated and the significance is determined by a one way analysis of variance with Dunnett's comparisons to control (P=0.05). Drug effects are expressed as a percent change from control values: [formula]

[5] = arachidonic acid stimulation, read-out: PGE2 AA % Inhibition

Row | SMILES | inhibition at 10 µM [1] | inhibition at 25 µM [1] | inhibition at 50 µM [1] | inhibition at 10 µM [2] | inhibition at 25 µM [2] | IC50 ([3]; zymosan stimulation) | Subcutaneous % Inhibition at 50 m/kg ([4]; on line of vehicle acetone) | Topical % Inhibition at 200 μg ([4]; vehicle acetone) | inhibition at 50 µM [2] | inhibition at 0.3 µM [3, 5] | Subcutaneous % Inhibition at 50 m/kg ([4]; on line of vehicle EPW) | Topical % Inhibition at 200 μg ([4]; vehicle EPW) | inhibition at 5 µM ([3]; arachidonic acid stimulation, 5 μM, read-out: PGE2 AA % Inhibition) | ED50 [4] | inhibition at 1 µM ([3]; arachidonic acid stimulation, 1.0 μM, read-out: PGE2 AA % Inhibition) | Topical % Inhibition at 200 μg ([4]; vehicle not given) | inhibition at 0.5 µM [3, 5] | inhibition at 0.1 µM ([3]; zymosan stimulation) | inhibition at 0.5 µM ([3]; zymosan stimulation, read-out: PGE2 zymosan % Inhibition) | Subcutaneous % Inhibition at 50 m/kg ([4]; no vehicle on line)
1 | CCCCCCCCCC(=O)C1=C(O)COC1=O [Example 1, 4-Hydroxy-3-(1-oxodecyl)-2(5H)-furanone] | 13% | 32% | 68% | 37% | 46% | 3000 nM | 23% | 31% |  |  |  |  |  |  |  |  |  |  |  | 
2 | CCCCCCCC/C=C\CCCCCCCC(=O)C1=C(O)COC1=O [Example 9, (Z)-4-Hydroxy-3-(1-oxo-9-octadecenyl)-2(5H)-furanone] |  |  | 56% |  |  | 200 nM | 7% | 42% | 100% | 4% | 28% | 56% |  |  |  |  |  |  |  | 
3 | CCCCC/C=C\C/C=C\CCCCCCCC(=O)C1=C(O)COC1=O [Example 14, (Z,Z)-4-Hydroxy-3-(1-oxo-9,12-octadecadienyl)-2(5H)-furanone] | 16% | 19% | 64% | 30% | -5% | 4000 nM | 21% | 28% |  |  | 37% | 51% | 38% | 118 mg/kg |  |  |  |  |  | 
4 | CC/C=C\C/C=C\C/C=C\CCCCCCCC(=O)C1=C(O)COC1=O [Example 15, (Z,Z,Z)-4-Hydroxy-3-(1-oxo-9,12,15-octadecatrienyl)-2(5H)-furanone] |  |  | 21% |  |  | 350 nM |  | 34% | 68% |  |  |  |  |  |  |  |  |  |  | 
5 | CCCCCCCCCCC/C=C\CCCCC(=O)C1=C(O)COC1=O [Example 18, (Z)-4-Hydroxy-3-(1-oxo-6-octadecenyl)-2(5H)-furanone] |  | 53% | 47% |  | 83% | 140 nM | 37% | 1% |  | -17% | 28% | 53% |  |  |  |  |  |  |  | 
6 | CCCCC/C=C\C/C=C\C/C=C\CCCCC(=O)C1=C(O)COC1=O [Example 20, (Z,Z,Z)-4-Hydroxy-3-(1-oxo-6,9,12-octadecatrienyl)-2(5H)-furanone] |  |  | 83% |  |  | 700 nM | 76% | 80% | 95% |  |  | 81% |  | 31 mg/kg | 1% |  |  |  |  | 
7 | CCCCCC1CC1CC1CC1CCCCCCCC(=O)C1=C(O)COC1=O (stereo not drawn) [Example 22, 4-Hydroxy-3-[1-oxo-8-[2-[(2-pentylcyclopropyl)methyl]cyclopropyl]octyl]-2(5H)-furanone] | 24% | 49% | 67% | 93% | 91% | 200 nM | 36% | 40% |  |  |  |  |  |  |  |  |  |  |  | 
8 | CCCC/C=C\CCCCCCCC(=O)C1=C(O)COC1=O [Example 25, 4-Hydroxy-3-((Z)-1-oxo-9-tetradecenyl)-2(5H)-furanone] |  |  | 47% | 74% |  | 200 nM | 64% | 30% | 97% |  |  |  |  |  |  | 86% |  |  |  | 
9 | O=C(CCCCCCC/C=C\c1ccc(Cl)cc1)C1=C(O)COC1=O [Example 35, 3-[(Z)-10-(4-chlorophenyl)-1-oxo-9-decenyl]-4-hydroxy-2(5H)-furanone] |  |  | 5% | 81.6% |  | 150 nM |  | 39% | 98.5% |  |  |  |  |  |  |  |  |  |  | 
10 | CCCCC/C=C\C/C=C\CCCCCCCC(=O)C1=C(O)CSC1=O [Example 46, 4-Hydroxy-3[(Z,Z)-1-oxo-9,12-octadecadienyl]-2(5H)-thiophenone] |  | 7% | 50% |  |  | 100 nM | 73% | 41% | 39% |  |  | 82% |  | 46 mg/kg |  |  | 5% | 51.9% |  | 
11 | CCCCCCCCCCC/C=C\CCCCC(=O)C1=C(O)CSC1=O [Example 51, 4-Hydroxy-3-[(Z)-1-oxo-6-octadecenyl]-2(5H)-thiophenone] |  |  | 70% |  |  |  |  |  |  |  |  |  |  |  |  | 55% |  | 0.5% | 91.3% | 76%
